Data taken from ChEMBL document CHEMBL3352805, “Structure and Stereochemical Determination of Hypogeamicins from a Cave-Derived Actinomycete” (J Nat Prod, 2014).
In brackets after ≈: the same amount, converted by molar mass. Activity calls are given as the source filed them. The rule behind the calls is not given here.

How the values were obtained:
[1] = system: TCT1; experiment: (§1) Cytotoxicity against human TCT1 cells after 48 hrs by calcein-AM dye based fluorescence assay; type: functional, cell-based
[2] = system: Bacillus subtilis; experiment: Antibacterial activity against Bacillus subtilis; type: functional
[3] = as §1; type: functional, cell-based; details: TCT1, 48 h

For `CCC[C@H]1O[C@H](CC(N)=O)C[C@]23O[C@]12C(=O)c1c(O)cc(OC)cc1C3=O`, the Activity [1] was “inactive” and the MIC [2] was 7 µg/mL (≈ 18.6 µM).

With `CCC[C@H]1O[C@H](CC(N)=O)C[C@]2(S[C@]34C[C@@H](CC(N)=O)O[C@H](CCC)[C@]3(O)C(=O)c3c(O)cc(OC)cc3C4=O)C(=O)c3cc(OC)cc(O)c3C(=O)[C@@]12O` the Cytotoxicity [1] was “Active” and the MIC [2] was “inactive”.

`COC(=O)CC1CC2(SC34CC(CC(=O)OC)OC(C)C3(O)C(=O)c3c(O)cccc3C4=O)C(=O)c3cccc(O)c3C(=O)C2(O)C(C)O1` (stereo not drawn) gave an IC50 [3] of 6.4 µM.

For `CC(=O)O[C@H]1C(=O)[C@@]2(C)[C@H]([C@H](OC(=O)c3ccccc3)[C@]3(O)C[C@H](OC(=O)[C@H](O)[C@@H](NC(=O)c4ccccc4)c4ccccc4)C(C)=C1C3(C)C)[C@]1(OC(C)=O)CO[C@@H]1C[C@@H]2O` [PACLITAXEL], the IC50 [3] was 0.0025 µM.

With `CCC[C@H]1O[C@H](CC(N)=O)C[C@]2(O)C(=O)c3cc(OC)cc(O)c3C(=O)[C@@]12O` the Activity [1] was “inactive” and the MIC [2] was 28 µg/mL (≈ 71.2 µM).

For `COC(=O)CC1CC2(SC34CC(CCO)OC(C)C3(O)C(=O)c3c(O)cccc3C4=O)C(=O)c3cccc(O)c3C(=O)C2(O)C(C)O1` (stereo not drawn), the IC50 [3] was 6.4 µM.

With `CCC[C@H]1O[C@H](C(O)C(N)=O)C[C@]23O[C@]12C(=O)c1c(O)cc(OC)cc1C3=O` (stereo partly drawn) the Activity [1] was “inactive” and the MIC [2] was 7 µg/mL (≈ 17.9 µM).

Work on GENTAMICIN yielded an MIC [2] of 0.125 µg/mL.

`CC[C@H]1OC(=O)[C@H](C)[C@@H](O[C@H]2C[C@@](C)(OC)[C@@H](O)[C@H](C)O2)[C@H](C)[C@@H](O[C@@H]2O[C@H](C)C[C@H](N(C)C)[C@H]2O)[C@](C)(O)C[C@@H](C)C(=O)[C@H](C)[C@@H](O)[C@]1(C)O` [ERYTHROMYCIN] showed an MIC [2] of 0.125 µg/mL (≈ 0.17 µM).
